Columns and labels:
[1] = test system: glioblastoma cell line SNB-19; assay: Detachment and apoptosis in SNB-19 cells; type: cell-based, human
Experimental: (§1) c. Treatment of cells with MCP inhibitor. Cells were treated with a specified MCP Inhibitor, a standard anticancer agent (etoposide or cisplatin), or DMSO (vehicle). During this process, morphological changes and cellular detachment (for attached cell lines) were monitored. At each time point, cells were harvested, and used for measurement of apoptosis and other biochemical events. In Example 1, infra, involving YVAD-CMK, Compound A was first added to Jurkat T cells. This was followed immediately by dividing the cells into multiple tissue culture flasks. YVAD-CMK was then added to an indicated concentration.
(§2) d. Flow cytometry nuclear staining and DNA fragmentation assays. DNA content analysis using flow cytometry was performed as described previously (Nicoletti, I., et al. J. Immunol. Methods 139:271-279, 1992). To assay nuclear morphology, cells were washed with PBS, fixed with 70% ethanol for 1 h, and stained with Hoechst 33258 (1 mM) for 30 min. The nuclear morphology of cells was visualized by fluorescence microscope (OLYMPUS BH2). DNA fragmentation was assayed as described previously (Grant, S., et al. Cancer Res. 52:6270-6278, 1992).

[2] = test system: SV40-transformed human fibroblasts (WI-38 VA13); assay: Detachment, apoptotic nuclear changes and PARP cleavage in SV40-transformed fibroblasts; type: cell-based
Experimental: as §1, §2
(§3) e. Whole cell extracts and western blot assay. To prepare whole cell extracts, cells were washed with PBS, and homogenized in lysis buffer (50 mM Tris, pH 8.0, 5 mM EDTA, 150 mM NaCl, 0.5% Nonidet P-40, 0.5 mM PMSF and 0.5 mM dithiothreitol). Following 30 min rocking at 4° C., the lysates were centrifuged and the supernatants were collected as whole cell extracts. The protein samples were then analyzed by sodium dodecyl sulfate-6% polyacrylamide gel electrophoresis (20-60 μg protein per lane) followed by the enhanced chemiluminescence Western blot assay using specific antibodies to CPP32, PARP, p21, p27 or RB.
(§4) Whether Compound A has, any selectivity in induction of apoptosis between transformed and normal cells was investigated. Normal human fibroblast cell line (WI-38) and its SV40-transformed derivative (WI-38 VA13) were utilized. […]

[3] = test system: p21 and p27 in SV-40 transformed WI-38 fibroblasts; assay: Western blot of p21 and p27 levels in SV-40 transformed WI-38 fibroblasts; type: cell-based, human; conditions: SV-40 transformed WI-38, 10 μM, 22 hours
Experimental: as §3
(§5) The accumulation of p21 and p27 following treatment with Compound A was also evaluated in SV-40 transformed and normal WI-38 fibroblasts.

[4] = test system: PARP, RB and caspase-3 cleavage in Jurkat T cells; assay: Western blot of caspase-3, PARP and RB in Jurkat T cells; type: cell-based, human
Experimental: as §3
(§6) Example 1 was designed to determine if MCP is involved in the survival signaling pathway(s) and if inhibition of MCP activity induces apoptosis. Human Jurkat T cells were treated with 30 μM Compound A for 4 h. […] Both the p112 and p115 forms of RB as p112-115/RB were combined and used as an apoptosis marker.
The ability of these three MCP inhibitors to induce changes in PARP and RB proteins in a parallel experiment was also investigated. […] This rank corresponded exactly to that of the three compounds for inhibition of the chymotrypsin-like activity in isolated proteasomes (Iqbal, M., et al. J. Med Chem. 38: 2276-2277, 1995; Iqbal, M., et al. Bioorg. Med. Chem. Lett. 6: 287-290, 1996) and in intact murine B cells (Harding, C. V., et al. J Immuno. 155: 1767-1775, 1995).

[5] = test system: Normal human fibroblast cell line (WI-38); assay: Detachment, apoptotic nuclear changes and PARP cleavage in normal fibroblasts; type: cell-based
Experimental: as §1, §2, §3, §4

[6] = target: MCP chymotrypsin-like activity (Homo sapiens, UniProt P28074); conditions: literature values (Iqbal et al.; Rock et al.); read-out: Ki toward the proteasome chymotrypsin-like activity; cited from earlier work
[7] = test system: p21 and p27 in human breast cancer MDA-MB-231 cells; assay: Western blot of p21 and p27 levels in MDA-MB-231 cells; type: cell-based; conditions: MDA-MB-231, 15 μM, 6 hours
Experimental: as §3
Additionally, a band of 70 kDa whih may represent ubiquinated p70 was also observed. In contrast, etoposide caused only limited accumulation of p21 (≦4-fold) and p27 (≦2-fold) at 17 hours when used at concentrations up to 100 μM.

human Jurkat T cells = assay: Apoptosis in Jurkat T cells (flow cytometry sub-G1 DNA content, DNA fragmentation); type: cell-based; conditions: Jurkat T cells
Experimental: as §1, §2, §6
When human Jurkat T cells were treated with 15 μM Compound A for 8 h, there was a 23% increase in the apoptotic population with sub-G1 DNA content (FIG. 2, panels b vs. a). By comparison, when Compound B was used, only an 8%-increase in sub-G1 population was detected (FIG. 2, panels c vs. a).

[8] = test system: p21 and p27 in normal WI-38 fibroblasts; assay: Western blot of p21 and p27 levels in normal WI-38 fibroblasts; type: cell-based, human; conditions: normal WI-38, 10 μM, 22 hours
Experimental: as §3, §5

[9] = test system: human breast cancer MDA-MB-231 cells; assay: Detachment and apoptotic nuclear changes in MDA-MB-231 cells; type: cell-based; conditions: MDA-MB-231, 24 h
Experimental: as §1, §2
Detachment was also found in at least half of human breast cancer MDA-MB-231 and MCF-7 cells, after exposure to Compound A for 24 h.

[10] = test system: human leukemia HL-60 cells; assay: Apoptosis in HL-60 cells (DNA fragmentation, PARP cleavage); type: cell-based; conditions: 30 μM, 3-4 h
Experimental: as §2, §3
Example 1 was designed to determine if MCP is involved in the survival signaling pathway(s) and if inhibition of MCP activity induces apoptosis. Human Jurkat T cells were treated with 30 μM Compound A for 4 h. […]

CC(C)C[C@@H](C=O)NC(=O)[C@@H](CCCNC(=N)N[N+](=O)[O-])NC(=O)C(CCCCCCCCN1C(=O)c2ccccc2C1=O)C1CCCC1 (stereo partly shown) [Compound A]
Induction of cellular detachment and apoptosis [1]: induced cellular detachment and apoptosis
PARP cleavage ([2]; SV40-transformed WI-38, total cell population): observed only in the transformed
Detachment and apoptotic nuclear changes ([2]; WI-38 VA13, 10 μM, up to 22 h): induced a detachment in the majority of SV40-transformed cells
Elevation of p27 levels [3]: 8 fold
Production of p85/PARP and p112-115/RB ([4]; Jurkat T cells, 15 μM, time course up to 24 h): production of p85/PARP and p 112-115/RB were observed after 2 h
Cleavage of PARP to p85 and RB to p68 ([4]; Jurkat T cells, 30 μM, 4 h): induced cleavage of PARP to a p85 fragment
Processing of caspase-3 ([4]; Jurkat T cells, 30 μM, 4 h): induced processing of caspase-3
Cleavage of PARP ([4]; Jurkat cells, 30 μM, 3-4 h): complete cleavage of PARP
Detachment and apoptotic nuclear changes ([5]; normal WI-38, 10 μM, up to 22 h): did not induce either detachment or apoptotic nuclear morphology
PARP cleavage ([5]; normal WI-38, total cell population): not in the normal
Ki [6]: < 2 nM
Increase in level of p21 [7]: 45 fold
Levels of p27 [7]: slightly increased
Increase in the apoptotic population with sub-G1 DNA content (human Jurkat T cells; 15 μM, 8 h): 23%
Induction of apoptosis (sub-G1 DNA content, nuclear condensation/fragmentation, internucleosomal DNA fragmentation) (human Jurkat T cells; 30 μM, 4 h): apoptosis occurred
p27 levels [8]: increased only slightly
Apoptosis by nuclear staining [9]: apoptotic morphology in all of the detached and most of the attached cells
Detached cells [9]: at least half
Cleavage of PARP [10]: complete cleavage of PARP
